# Read-outs that look alike come from different tables or passages of the source.
# Tested on: HCT15 cells
# Assay: MDR cell based killing assay, HCT15 cells with or without Verapamil (CellTiter-Glo)
# Design: species or system human
# Conditions: Homo sapiens
# Procedure: To test the ability of the disclosed tubulysin payloads or prodrug payloads to kill human cell lines, an in vitro cytotoxicity assay can be performed. In vitro cytotoxicity of the disclosed payloads, as well as reference compounds, are evaluated using the CellTiter-Glo Assay Kit (Promega, Cat # G7573), in which the quantity of ATP present is used to determine the number of viable cells in culture. For the assay, C4-2, HEK293, or T47D cells are seeded at 4000 cells/well on Nunclon white 96-well plates in complete growth medium (DME high glucose:Ham's F12 at 4:1, 10% FBS, 100 units/ml Penicillin, 100 ug/ml streptomycin, 53 ug/ml glutatmine, 10 ug/ml insulin, 220 ng/ml biotin, 12.5 pg/ml T3, 12.5 ug/ml Adenine, 4 ug/ml transferrin for C42 cells; DME high glucose, 10% FBS, 100 units/ml Penicillin, 100 ug/ml streptomycin, 53 ug/ml glutatmine for HEK293; RPMI, 10% FBS, 100 units/ml Penicillin, 100 ug/ml streptomycin, 53 ug/ml glutatmine, 10 ug/ml insulin, 10 mM HEPEs, 200 nM Sodium Pyruvate for T47D cells) and grown overnight at 37° C. in 5% CO2. For cell viability curves, 1:3 serially diluted payloads are added to the cells at final concentrations ranging from 100 nM to 15 pM, including a no treatment control group, and are then incubated for 5 days. After the 5-day incubation, cells are incubated at room temperature with 100 μL of CellTiter-Glo reagents for 10 minutes. Relative luminescence units (RLU) can be determined on a Victor plate reader (PerkinElmer). The IC50 values are determined from a four-parameter logistic equation over a 10-point response curve (GraphPad Prism). All IC50 values are expressed in molar (M) concentration. The percent cell killing (% kill) at the maximum concentration tested is estimated from the following formula (100−% viable cells). Averages±standard deviation (SD) can be included where replicate experiments are performed.
# In vitro cytotoxicity of the disclosed payloads as well as reference compounds are evaluated similarly as described above except using 1000 HCT15 cells, a colorectal carcinoma cell line, in growth medium (RPMI, 10% FBS, 100 units/ml Penicillin, 100 ug/ml streptomycin, 53 ug/ml glutatmine) with or without 5 ug/mL of Verapamil.
# For each payload or prodrug payload, the HCT-15 IC50 in the absence of Verapamil is divided by the HCT-15 IC50 in the presence of Verapamil (HCT-15 IC50/HCT-15+Verapamil IC50). […] The reference compound, (MMAE), can have a ratio of 23.7. […]
# [1] = HCT-15, read-out: HCT-15 with verapamil IC50
SMILES,"IC50 (HCT-15, read-out: HCT-15 IC50) [nM]",IC50 [1] [nM]
"CCCCCCN(C(=O)[C@@H](NC(=O)[C@H]1CCCCN1C)[C@@H](C)CC)[C@H](C[C@@H](OC(=O)NCCOCCOCCOCCN)c1nc(C(=O)N[C@@H](Cc2ccc(F)cc2)CC(C)(C)C(=O)O)cs1)C(C)C [Compound P11, (4S)-4-({2-[(1R,3R)-1-{[(2-{2-[2-(2-aminoethoxy)ethoxy]ethoxy}ethyl)carbamoyl]oxy}-3-[(2S,3S)—N-hexyl-3-methyl-2-{[(2R)-1-methylpiperidin-2-yl]formamido}pentanamido]-4-methylpentyl]-1,3-thiazol-4-yl}formamido)-5-(4-fluorophenyl)-2,2-dimethylpentanoic Acid]",157,–
"C#CCCCON(C(=O)[C@@H](NC(=O)[C@@]1(C)CCCN1)[C@@H](C)CC)[C@H](C[C@@H](OC(C)=O)c1nc(C(=O)N[C@@H](Cc2ccc(N)c(F)c2)CC(C)(C)C(=O)O)cs1)C(C)C [Compound P35, (4S)-4-({2-[(1R,3R)-1-(acetyloxy)-4-methyl-3-[(2S,3S)-3-methyl-2-{[(2R)-2-methylpyrrolidin-2-yl]formamido}-N-(pent-4-yn-1-yloxy)pentanamido]pentyl]-1,3-thiazol-4-yl}formamido)-5-(4-amino-3-fluorophenyl)-2,2-dimethylpentanoic Acid]",4.87,–
"CCCCCCN(C(=O)[C@@H](NC(=O)[C@@]1(C)CCCN1)[C@@H](C)CC)[C@H](C[C@@H](OC(=O)NC)c1nc(C(=O)N[C@@H](Cc2ccc(O)cc2)CC(C)(C)C(=O)O)cs1)C(C)C [Compound P23, (4S)-4-({2-[(1R,3R)-3-[(2S,3S)—N-hexyl-3-methyl-2-{[(2R)-2-methylpyrrolidin-2-yl]formamido}pentanamido]-4-methyl-1-[(methylcarbamoyl)oxy]pentyl]-1,3-thiazol-4-yl}formamido)-5-(4-hydroxyphenyl)-2,2-dimethylpentanoic Acid]",3.6,0.06
"C#CCCCON(C(=O)[C@@H](NC(=O)[C@H]1CCCCN1C)[C@@H](C)CC)[C@H](C[C@@H](OC(C)=O)c1nc(C(=O)NS(=O)(=O)Cc2ccc(N)cc2)cs1)C(C)C [Compound P49, (1R,3R)-1-(4-{[(4-aminophenyl)methanesulfonyl]carbamoyl}-1,3-thiazol-2-yl)-4-methyl-3-[(2S,3S)-3-methyl-2-{[(2R)-1-methylpiperidin-2-yl]formamido}-N-(pent-4-yn-1-yloxy)pentanamido]pentyl Acetate]",163,–
"CCCCCCN(C(=O)[C@@H](NC(=O)[C@H]1C[C@H](C)CCN1)[C@@H](C)CC)[C@H](C[C@@H](OC(C)=O)c1nc(C(=O)N[C@@H](Cc2ccc(N)c(F)c2)CC(C)(C)C(=O)O)cs1)C(C)C [Compound P14, (4S)-4-({2-[(1R,3R)-1-(acetyloxy)-3-[(2S,3S)—N-hexyl-3-methyl-2-{[(2R,4R)-4-methylpiperidin-2-yl]formamido}pentanamido]-4-methylpentyl]-1,3-thiazol-4-yl}formamido)-5-(4-amino-3-fluorophenyl)-2,2-dimethylpentanoic Acid]",1.21,0.1
"CCCCCCN(C(=O)[C@@H](NC(=O)[C@H]1C[C@H](C)CCN1C)[C@@H](C)CC)[C@H](C[C@@H](OC(C)=O)c1nc(C(=O)N[C@@H](Cc2ccc(N)c(F)c2)CC(C)(C)C(=O)O)cs1)C(C)C [Compound P13, (4S)-4-({2-[(1R,3R)-1-(acetyloxy)-3-[(2S,3S)-2-{[(2R,4R)-1,4-dimethylpiperidin-2-yl]formamido}-N-hexyl-3-methylpentanamido]-4-methylpentyl]-1,3-thiazol-4-yl}formamido)-5-(4-amino-3-fluorophenyl)-2,2-dimethylpentanoic Acid]",0.15,0.13
"CCCCCCN(C(=O)[C@@H](NC(=O)[C@H]1CCCCN1C)[C@@H](C)CC)[C@H](C[C@@H](OC(C)=O)c1nc(C(=O)N[C@@H](Cc2ccc(N)cc2)CC(C)(C)C(=O)O)cs1)C(C)C [Compound P7, (4S)-4-({2-[(1R,3R)-1-(acetyloxy)-3-[(2S,3S)—N-hexyl-3-methyl-2-{[(2R)-1-methylpiperidin-2-yl]formamido}pentanamido]-4-methylpentyl]-1,3-thiazol-4-yl}formamido)-5-(4-aminophenyl)-2,2-dimethylpentanoic Acid]",0.02,0.02
"CCCCCCN(C(=O)[C@@H](NC(=O)[C@@]1(C)CCCN1)[C@@H](C)CC)[C@H](C[C@@H](OC(C)=O)c1nc(C(=O)N[C@@H](Cc2ccc(O)cc2)CC(C)(C)C(=O)O)cs1)C(C)C [Compound P22, (4S)-4-({2-[(1R,3R)-1-(acetyloxy)-3-[(2S,3S)—N-hexyl-3-methyl-2-{[(2R)-2-methylpyrrolidin-2-yl]formamido}pentanamido]-4-methylpentyl]-1,3-thiazol-4-yl}formamido)-5-(4-hydroxyphenyl)-2,2-dimethylpentanoic Acid]",0.27,0.08
"CCCCCCN(C(=O)[C@@H](NC(=O)[C@H]1CCCCN1C)[C@@H](C)CC)[C@H](C[C@@H](O)c1nc(C(=O)N[C@@H](Cc2ccc(N)cc2)CC(C)(C)C(=O)O)cs1)C(C)C [Compound P6, (4S)-5-(4-aminophenyl)-4-({2-[(1R,3R)-3-[(2S,3S)—N-hexyl-3-methyl-2-{[(2R)-1-methylpiperidin-2-yl]formamido}pentanamido]-1-hydroxy-4-methylpentyl]-1,3-thiazol-4-yl}formamido)-2,2-dimethylpentanoic Acid]",16.3,0.78
"CCCCCCN(C(=O)[C@@H](NC(=O)[C@H]1CCCCN1C)[C@@H](C)CC)[C@H](C[C@@H](OC(C)=O)c1nc(C(=O)N[C@@H](Cc2ccc(F)cc2)CC(C)(C)C(=O)NS(=O)(=O)c2ccc(N)cc2)cs1)C(C)C [Compound P47, (1R,3R)-1-(4-{[(2S)-4-[(4-aminobenzenesulfonyl)carbamoyl]-1-(4-fluorophenyl)-4,4-dimethylbutan-2-yl]carbamoyl}-1,3-thiazol-2-yl)-3-[(2S,3S)—N-hexyl-3-methyl-2-{[(2R)-1-methylpiperidin-2-yl]formamido}pentanamido]-4-methylpentyl Acetate]",53.5,–
"CCCCCCN(C(=O)[C@@H](NC(=O)[C@H]1CCCCN1C)[C@@H](C)CC)[C@H](C[C@@H](OCC)c1nc(C(=O)N[C@@H](Cc2ccccc2)CC(C)(C)C(=O)NS(=O)(=O)Cc2ccc(N)cc2)cs1)C(C)C [Compound P48, (2S,3S)—N-[(1R,3R)-1-(4-{[(2S)-4-{[(4-aminophenyl)methanesulfonyl]carbamoyl}-4,4-dimethyl-1-phenylbutan-2-yl]carbamoyl}-1,3-thiazol-2-yl)-1-ethoxy-4-methylpentan-3-yl]-N-hexyl-3-methyl-2-{[(2R)-1-methylpiperidin-2-yl]formamido}pentanamide]",65.8,–
"CCCCCCN(C(=O)[C@@H](NC(=O)[C@@]1(C)CCCN1C)[C@@H](C)CC)[C@H](C[C@@H](OC(C)=O)c1nc(C(=O)N[C@@H](Cc2ccc(N)cc2)CC(C)(C)C(=O)O)cs1)C(C)C [Compound P19, (4S)-4-({2-[(1R,3R)-1-(acetyloxy)-3-[(2S,3S)-2-{[(2R)-1,2-dimethylpyrrolidin-2-yl]formamido}-N-hexyl-3-methylpentanamido]-4-methylpentyl]-1,3-thiazol-4-yl}formamido)-5-(4-aminophenyl)-2,2-dimethylpentanoic Acid]",0.2,0.01
"C#CCCCON(C(=O)[C@@H](NC(=O)[C@H]1CCCCN1C)[C@@H](C)CC)[C@H](C[C@@H](OC(C)=O)c1nc(C(=O)N[C@@H](Cc2ccc(N)cc2)CC(C)(C)C(=O)O)cs1)C(C)C [Compound P34, (4S)-4-({2-[(1R,3R)-1-(acetyloxy)-4-methyl-3-[(2S,3S)-3-methyl-2-{[(2R)-1-methylpiperidin-2-yl]formamido}-N-(pent-4-yn-1-yloxy)pentanamido]pentyl]-1,3-thiazol-4-yl}formamido)-5-(4-aminophenyl)-2,2-dimethylpentanoic Acid]",0.41,0.24
"CCCCCCN(C(=O)[C@@H](NC(=O)[C@H]1CCCCN1C)[C@@H](C)CC)[C@H](C[C@@H](NC(C)=O)c1nc(C(=O)N[C@@H](Cc2ccc(N)cc2)CC(C)(C)C(=O)O)cs1)C(C)C [Compound P9, (4S)-5-(4-aminophenyl)-4-({2-[(1R,3R)-1-acetamido-3-[(2S,3S)—N-hexyl-3-methyl-2-{[(2R)-1-methylpiperidin-2-yl]formamido}pentanamido]-4-methylpentyl]-1,3-thiazol-4-yl}formamido)-2,2-dimethylpentanoic Acid]",2.07,0.3

# Reference: US20230069722A1, “TUBULYSINS AND PROTEIN-TUBULYSIN CONJUGATES” (priority 2020, published 2023)
